The supplement of paper PMC5908809

Experiments:
[1] = tested on: normal primary NK cells, pool 1 (3 donors) (IL-2 2.5 ng/mL); experiment: percent inhibition of viability; higher = more inhibition; conditions: 72 h
[2] = tested on: DERL-7 (IL-2 2.5 ng/mL); experiment: as above; conditions: 72 h
[3] = tested on: normal primary NK cells, pool 1 (3 donors), resting (IL-2 0 ng/mL); experiment: as above; conditions: 72 h
[4] = tested on: SNK-6 (IL-2 2.5 ng/mL); experiment: as above; conditions: 72 h
[5] = tested on: YT (IL-2 2.5 ng/mL); experiment: as above; conditions: 72 h
[6] = tested on: normal primary NK cells, pool 2 (3 donors) (IL-2 2.5 ng/mL); experiment: as above; conditions: 72 h
[7] = tested on: KHYG-1 (IL-2 2.5 ng/mL); experiment: as above; conditions: 72 h
[8] = tested on: NK-YS (IL-2 2.5 ng/mL); experiment: as above; conditions: 72 h
[9] = tested on: NKL (IL-2 2.5 ng/mL); experiment: as above; conditions: 72 h
[10] = tested on: KAI3 (IL-2 2.5 ng/mL); experiment: as above; conditions: 72 h
[11] = tested on: normal primary NK cells, pool 3 (3 donors) (IL-2 2.5 ng/mL); experiment: as above; conditions: 72 h
[12] = tested on: NK-92 (IL-2 2.5 ng/mL); experiment: as above; conditions: 72 h
[13] = tested on: IMC-1 (IL-2 20 ng/mL); experiment: as above; conditions: 72 h
[14] = tested on: normal primary NK cells, pool 1 (3 donors) (IL-2 2.5 ng/mL); experiment: drug sensitivity score (DSS) (DSS units); higher = more sensitive; extreme values may be limits of the assay; conditions: 72 h
[15] = tested on: DERL-7 (IL-2 2.5 ng/mL); experiment: as above; conditions: 72 h
[16] = tested on: normal primary NK cells, pool 1 (3 donors), resting (IL-2 0 ng/mL); experiment: as above; conditions: 72 h
[17] = tested on: SNK-6 (IL-2 2.5 ng/mL); experiment: as above; conditions: 72 h
[18] = tested on: YT (IL-2 2.5 ng/mL); experiment: as above; conditions: 72 h
[19] = tested on: normal primary NK cells, pool 2 (3 donors) (IL-2 2.5 ng/mL); experiment: as above; conditions: 72 h
[20] = tested on: KHYG-1 (IL-2 2.5 ng/mL); experiment: as above; conditions: 72 h
[21] = tested on: NK-YS (IL-2 2.5 ng/mL); experiment: as above; conditions: 72 h
[22] = tested on: NKL (IL-2 2.5 ng/mL); experiment: as above; conditions: 72 h
[23] = tested on: KAI3 (IL-2 2.5 ng/mL); experiment: as above; conditions: 72 h
[24] = tested on: normal primary NK cells, pool 3 (3 donors) (IL-2 2.5 ng/mL); experiment: as above; conditions: 72 h
[25] = tested on: NK-92 (IL-2 2.5 ng/mL); experiment: as above; conditions: 72 h
[26] = tested on: IMC-1 (IL-2 20 ng/mL); experiment: as above; conditions: 72 h
[27] = tested on: normal NK cells expanded with K562-aAPC; experiment: percent inhibition of viability; higher = more inhibition; conditions: 72 h, IL-2 2.5 ng/mL
Protocol: (§1)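 Drug sensitivity and resistance testing on K562-aAPC-expanded normal NK cells: 5 concentrations (10-fold steps over a 10,000-fold range), 72 h at 37 °C, viability by CellTiter-Glo normalised to DMSO and benzethonium chloride controls; DSS from the fitted curve.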

[28] = tested on: normal NK cells expanded with K562-aAPC; experiment: drug sensitivity score (DSS) (DSS units); higher = more sensitive; extreme values may be limits of the assay; conditions: 72 h; IL-2 2.5 ng/mL
Protocol: as §1

CS(=O)(=O)c1ccc(C2=C(c3ccccc3)C(=O)OC2)cc1 [Rofecoxib] (max concentration tested 10000 nM)
percent inhibition of viability [%]
Conditions | 1 nM | 10 nM | 100 nM | 1000 nM | 10000 nM
[1] | -5.06 | -9.08 | -8.33 | 2.49 | 0.6
[2] | 6.85 | -1.97 | -3.99 | 2.79 | 0.07
[3] | -13.7 | -25.3 | -34.2 | -6.69 | -25.9
[4] | 8.2 | 18.3 | 4.94 | 9.79 | 3.14
[5] | 5.17 | 5.42 | 4.83 | 4.08 | 6.74
[6] | -7.81 | 1.86 | -6.15 | -8.51 | -5.43
[7] | 0.01 | 1.72 | 2.69 | 2.11 | 2.37
[8] | 3.55 | -3.6 | -2.98 | 3.34 | -0.78
[9] | 11.4 | 9.36 | 8.93 | 4.19 | 9.11
[10] | 8.75 | 4.53 | 5.34 | 3.57 | -3.77
[11] | -7.45 | -5.99 | -3.42 | -7.23 | -12.4
[12] | 11.4 | -0.5 | -4.39 | -1.55 | -5.21
[13] | 2.54 | 0.06 | 3 | -1.23 | 3.31
[27] | 10.3 | 5.54 | 3.01 | 2.73 | 3.42

Conditions | drug sensitivity score
[14] | 0
[15] | 0
[16] | 0
[17] | 0
[18] | 0
[19] | 0
[20] | 0
[21] | 0
[22] | 0
[23] | 0
[24] | 0
[25] | 0
[26] | 0
[28] | 0

COc1cc2c(N3CCN(C(=O)Nc4ccc(OC(C)C)cc4)CC3)ncnc2cc1OCCCN1CCCCC1 [Tandutinib] (max concentration tested 1000 nM)
percent inhibition of viability [%]
Conditions | 0.1 nM | 1 nM | 10 nM | 100 nM | 1000 nM
[1] | 3.36 | -11.3 | -7.24 | -22 | -12.1
[2] | 6.14 | 3.13 | 1.63 | 2.2 | -0.71
[3] | 6.87 | -8.83 | -1.76 | -7.72 | -7.9
[4] | 2.47 | -9.17 | 1.36 | -17.2 | -2.8
[5] | 1.06 | 0.08 | 6.39 | -0.96 | 9.65
[6] | -9.1 | 2.32 | -0.09 | -2.34 | 4.26
[7] | 3.28 | 0.15 | 6.9 | 6.14 | 16.8
[8] | 2.01 | 2.91 | 6.63 | 1.61 | 13.4
[9] | -15.4 | -9.75 | -9.72 | -2.92 | 7.53
[10] | -0.83 | 3.14 | 3.31 | 3.31 | 17.9
[11] | -11.8 | -8.39 | -1.84 | -4.05 | -10.6
[12] | -7.68 | 0.56 | 17.9 | 8.5 | 19.1
[13] | -5.53 | -2.46 | 0.78 | 2.8 | 18.4
[27] | 0.5 | 4.31 | 2.45 | 1.29 | 8.72

Conditions | drug sensitivity score
[14] | 0
[15] | 0
[16] | 0
[17] | 0
[18] | 0
[19] | 0
[20] | 0.42
[21] | 0
[22] | 0
[23] | 0.84
[24] | 0
[25] | 4.33
[26] | 0.83
[28] | 0

C/C(=C\c1csc(C)n1)[C@@H]1C[C@@H]2O[C@]2(C)CCC[C@H](C)[C@H](O)[C@@H](C)C(=O)C(C)(C)[C@@H](O)CC(=O)O1 [Patupilone] (max concentration tested 1000 nM)
percent inhibition of viability [%]
Conditions | 0.1 nM | 1 nM | 10 nM | 100 nM | 1000 nM
[1] | -9.75 | -4.17 | 10.3 | 5.4 | 6.51
[2] | -4.98 | 5.91 | 98.8 | 99.6 | 99.2
[3] | -18.5 | -28.5 | 6.09 | 7.49 | 15.2
[4] | 5.42 | 5.23 | 75.5 | 72.6 | 69.5
[5] | -3.08 | -3.77 | 59.4 | 97.9 | 96.7
[6] | 2.42 | -5.69 | 2.84 | 6.87 | 6.04
[7] | -3.34 | -8.41 | 25.7 | 104 | 102
[8] | -3.81 | -3.75 | 28.9 | 71.3 | 69.9
[9] | -9.24 | -10.5 | 34.6 | 93.9 | 90.3
[10] | -13.1 | -4.34 | 44.2 | 60.6 | 50.5
[11] | -13 | -7.53 | 0.9 | 3.45 | 6.6
[12] | -21.3 | -3.29 | 72.4 | 99.8 | 97.7
[13] | -0.59 | 0.29 | 97 | 99.9 | 99.2
[27] | -5.25 | -3.64 | 53.5 | 57.1 | 55.8

Conditions | drug sensitivity score
[14] | 0.14
[15] | 31.1
[16] | 0.55
[17] | 24.3
[18] | 24.7
[19] | 0
[20] | 21.9
[21] | 17
[22] | 21.7
[23] | 16.4
[24] | 0
[25] | 26.2
[26] | 30.1
[28] | 17.1

Nc1ccn([C@@H]2O[C@H](CO)[C@@H](O)C2(F)F)c(=O)n1 [Gemcitabine] (max concentration tested 1000 nM)
percent inhibition of viability [%]
Conditions | 0.1 nM | 1 nM | 10 nM | 100 nM | 1000 nM
[1] | -2.78 | -14 | 4.7 | -1.17 | 26.4
[2] | -4.73 | -12.3 | 44.9 | 99.7 | 99.8
[3] | -12.2 | -40.4 | -21.2 | -27.6 | 23.4
[4] | 18.4 | 13.8 | 57.7 | 94.6 | 100
[5] | 2.42 | -2.18 | 20.1 | 78.2 | 65
[6] | -12.2 | -6.97 | 19.6 | 14.7 | 29.7
[7] | 2.22 | 12.5 | 101 | 105 | 105
[8] | -3.23 | -1.72 | 87.7 | 97.1 | 101
[9] | -10.6 | 68.9 | 102 | 106 | 104
[10] | -18.3 | 3.34 | 79.8 | 98.3 | 101
[11] | -9.85 | -6.72 | 16.8 | 12.6 | 38
[12] | -6.25 | 12.2 | 92.2 | 104 | 104
[13] | -7.53 | 2 | 99.1 | 101 | 101
[27] | 1.65 | 34.8 | 55.6 | 74.6 | 88.2

Conditions | drug sensitivity score
[14] | 0.96
[15] | 23.7
[16] | 0.38
[17] | 25.1
[18] | 17.4
[19] | 3.97
[20] | 32.6
[21] | 28.4
[22] | 38.4
[23] | 27.6
[24] | 3.49
[25] | 31
[26] | 30.6
[28] | 24.5

COc1cc2ncnc(Nc3ccc(F)c(Cl)c3)c2cc1NC(=O)/C=C/CN1CCCCC1 [Dacomitinib] (max concentration tested 1000 nM)
percent inhibition of viability [%]
Conditions | 0.1 nM | 1 nM | 10 nM | 100 nM | 1000 nM
[1] | 2.94 | -9.71 | -7.32 | -13.9 | 28.8
[2] | -5.58 | -2.85 | -0.73 | -3.8 | 35.9
[3] | 4.51 | -7.96 | 0.41 | -14.9 | 59.7
[4] | 6.36 | -3.37 | 6.76 | 1.63 | 22.4
[5] | 5.15 | 4.77 | 7.83 | 2.51 | 14.2
[6] | -2.98 | -1.98 | 1.99 | -4.15 | 33
[7] | 10.5 | 10.2 | 7.74 | 5.43 | 16.9
[8] | 7.35 | 1.97 | 10.7 | 6.81 | 23.5
[9] | 3.41 | 22.9 | 21.4 | 24.5 | 43.9
[10] | 7.94 | 10.2 | 11.4 | 7.46 | 31.4
[11] | 0.64 | 1.31 | -1.6 | -10.6 | 17.6
[12] | 14.8 | 4.75 | 15.7 | -7.18 | 27.1
[13] | 9.55 | 7.6 | 11.6 | 10.1 | 13.4
[27] | 4.92 | 5.66 | 5.66 | 10.2 | 29.5

Conditions | drug sensitivity score
[14] | 0.77
[15] | 1.45
[16] | 2.49
[17] | 0.98
[18] | 0
[19] | 1.25
[20] | 0
[21] | 1.38
[22] | 8.95
[23] | 2.88
[24] | 0.2
[25] | 0.79
[26] | 0.74
[28] | 2.02
